# US12594248B2, “Stress management in human subjects in need thereof” (YEDA RESEARCH AND DEVELOPMENT CO. LTD., priority 2020, dated 2026)
# What was measured:
# male subjects [1] = test: Subjective stress level reports under a lecture stressor, Example 1; assay type: in vivo, human; conditions: scale 0-10, FIG. 1
# Method: For experiments 0.083M of Hexadecanal (HEX) dissolved in propylene glycol was used. Heating it for a few minutes eases the process (37° C. is sufficient). The mixture was aliquoted into daily portions, such that we thawed a daily serving prior to experiments. Participants were exposed to 100 ul of 0.083M HEX in 10 consecutive sniffs from a jar, and then taped a band aid with 30 ul on the upper lip. The band aid stayed to assure exposure throughout the experiment. Since propylene glycol has an odor, we used a masking odor.
# • 30 male subjects, 15 using Olfactory Blue (OB—Hexadecanal) and 15 with placebo. […]
# • Subjects—men only [mean age: 24.97 (SD=1.92)]. • An isolated office space (to avoid subject distraction) is prepared with a table and chair. • The computer, Modify standalone and the video recording are positioned and prepared. […] End of experiment • Experimenter debriefs subject—asks for general comments and feeling • Subjective stress level • End of test Measurements The following physiological measurements are recorded: 1. […] The following psychological/subjective measurements are recorded: 2. Memory test—the ability to remember a series of words seen one after the other and after conducting several simple mathematical tasks; scored by counting number of words correctly remembered. […] Subjective stress level—the stress level the subject feels at that moment; recorded on the computer. […]
# male subjects [2] = test: Stroop test (attention, cognitive performance), Example 1; assay type: in vivo, human; conditions: FIG. 2
# Method: (§1) • 30 male subjects, 15 using Olfactory Blue (OB—Hexadecanal) and 15 with placebo. […] Equipment • Computer/laptop with test script and cognitive tests • HR wrist monitor and Central unit • Video camera • 2×50 ml identical bottles—one with OB (solvent+Hexadecanal) and one only with dipropylene glycol (DPG) Goals and KPIs.
# • Subjects—men only [mean age: 24.97 (SD=1.92)]. • An isolated office space (to avoid subject distraction) is prepared with a table and chair. • The computer, Modify standalone and the video recording are positioned and prepared. Test Running • Subject is introduced and asked to take place in front of computer • Experimenter briefs the subject on the test procedure in general • Subject fills in a consent form (including GDPR consent) and signs the receipt for the money (see form in annex) • Subject fills in personal data on the computer • Experimenter presents the scent bottle (OB or Placebo) given to them by an assistant (who records which bottle has been given) to the subject to smell five sniffs within one minute (2% in the bottle). • Subject is asked about their subjective stress level on a scale between 0 (no stress at all) to 10 (extreme stress)—questionnaire on the computer • Experimenter completes the briefing and introduce 3 assignments to the participants: a memory task, a Stroop task and the stress manipulation—subject will have to give a 5 min lecture to an audience on one of three given topics—stressor. • Subject starts the experiment by following instructions on the computer: 1. […] End of experiment • Experimenter debriefs subject—asks for general comments and feeling • Subjective stress level • End of test Measurements The following physiological measurements are recorded: 1. […] The following psychological/subjective measurements are recorded: 2. Memory test—the ability to remember a series of words seen one after the other and after conducting several simple mathematical tasks; scored by counting number of words correctly remembered. […] Subjective stress level—the stress level the subject feels at that moment; recorded on the computer.
# male subjects [3] = test: Memory test (free recall), Example 1; assay type: in vivo, human; conditions: FIG. 3
# Method: as §1
# • Subjects—men only [mean age: 24.97 (SD=1.92)]. • An isolated office space (to avoid subject distraction) is prepared with a table and chair. • The computer, Modify standalone and the video recording are positioned and prepared. […] End of experiment • Experimenter debriefs subject—asks for general comments and feeling • Subjective stress level • End of test Measurements The following physiological measurements are recorded: 1. […] The following psychological/subjective measurements are recorded: 2. Memory test—the ability to remember a series of words seen one after the other and after conducting several simple mathematical tasks; scored by counting number of words correctly remembered. […] Subjective stress level—the stress level the subject feels at that moment; recorded on the computer.
# [4] = test system: men and women participants; test: Subjective stress level reports, men and women, Example 2; assay type: in vivo, human; conditions: two-way ANOVA, gender and fragrance condition; F(1,56)=5.1, p=0.03; no interaction; HEX vs PLACEBO; FIG. 4
# Method: (§2) Sixty-four participants (35 women) with an average age of 27.34 (SD 4.65), half participated in the HEX group and the other half in the PLACEBO group. The study was conducted in Ra'anana, Israel in a rented office using a laptop computer.
# (§3) Participants came in separately into the Ra'anana office, a research assistant (RA) welcomed them. After a short brief, participants were introduced with a bottle of liquid and were required to smell the bottle for 1 minute (with the instruction to breath normally). After being exposed to the smell, the RA explained about the three tasks (memory, attention, public speaking—the stressor). Participants reported their stress level before and after each assignment (7 times). Just before the last task, participants were informed that this task was canceled and then were asked to report their stress level for the last time.
# The first stress report was given pre-manipulation; therefore, it may shed light upon the general stress level of the participants. Mean score for first stress report was 3.32 (SD 1.68) for men and 2.59 (SD 1.76) for women.
# A two-way ANOVA was conducted with average stress (measures 2-6) as a dependent variable and gender and fragrance condition as the independent variables. […] Main effect for fragrance was also significant, F(1,56)=5.1, p=0.03. No interaction was found (F<0.1). […]
# [5] = test system: men and women participants; test: Average heart rate (HR) along the experiment, Example 2; assay type: in vivo, human; conditions: men and women together; FIG. 5, p<0.0001
# Method: as §2, §3
# [6] = test system: men and women participants; test: Memory test (free recall), Example 2; assay type: in vivo, human; conditions: HEX vs placebo group
# Method: as §2, §3
# [7] = test system: men and women participants; test: Attention test (Stroop test), Example 2; assay type: in vivo, human; conditions: HEX vs placebo group
# Method: as §2, §3
# [8] = test system: mouse OR37 receptor subtype B; conditions: Klein et al [15]; cited from earlier work
# [9] = test system: mouse OR37 receptor subtype A; conditions: Klein et al [15]; cited from earlier work
# [10] = test system: mouse OR37 receptor subtype C; conditions: Klein et al [15]; cited from earlier work
smiles,measurement,setting,value
"CCCCCCCCCCCCCCCC=O [HEX, Hexadecanal]","subjective stress report, difference between groups","male subjects [1]; stress0 (baseline) and stress4 (end, after being told there will be no lecture)",no difference
same,subjective stress report vs Placebo group,"male subjects [1]; stress1, stress2, stress3 (after assignments and smelling, after memory test, after Stroop test), 15 vs 15 men, p<0.01",significantly lower degree
same,"Stroop test number of errors, blue vs placebo",male subjects [2],No differences
same,"Stroop test reaction time, blue vs placebo",male subjects [2],No differences
same,cognitive performance relative to placebo,male subjects [2]; as evidenced by the Stroop test,does not affect cognitive performance
same,"free recall assignment, difference between conditions",male subjects [3],no differences
same,"average stress (measures 2-6), main effect for fragrance",[4],significant
same,average HR vs placebo group,[5],lower
same,"memory (free recall), difference between groups",[6],did not differ
same,"attention (Stroop test), difference between groups",[7],did not differ
same,activation of OR37 subtype B,[8],activated
CCCCCCCCCCCCCCC=O [pentadecanal],activation of OR37 subtype A,[9],activated
CCCCCCCCCCCCCCCCC=O [heptadecanal],activation of OR37 subtype C,[10],activated
